# Measurements from patent publication US11214542B2, “Histone demethylase inhibitors” (CELGENE QUANTICEL RESEARCH, INC., priority 2012, dated 2022).
# Target: JMJD2C (Homo sapiens (Human), UniProt Q9H3R0)
# Experiment: JMJD2C TR-FRET in vitro enzyme inhibition assay
# Type: biochemical
# Details: 0.3 nM JMJD2C, H3K9me3 peptide, read-out: JMJ-D2C IC50
# Description: This assay determines the ability of a test compound to inhibit Jarid1A, Jarid1B, and JMJD2C demethylase activity. Baculovirus expressed Jarid1A (GenBank Accession #NM_001042603, AA1-1090) was purchased from BPS Bioscience (Cat #50110). Baculovirus expressed Jarid1B (GenBank Accession #NM_006618, AA 2-751) was purchased from BPS Bioscience (Cat #50121) or custom made by MolecularThroughput. Baculovirus-expressed JMJD2C (GenBank Accession #BC143571, AA 2-372) was purchased from BPS Bioscience (Cat #50105).
# The ability of test compounds to inhibit the activity of JMJD2C was determined in 384-well plate format under the following reaction conditions: 0.3 nM JMJD2C, 300 nM H3K9me3-biotin labeled peptide (Anaspec cat #64360), 2 μM alpha-ketoglutaric acid in assay buffer of 50 mM HEPES, pH7.3, 0.005% Brij35, 0.5 mM TCEP, 0.2 mg/ml BSA, 50 μM sodium L-ascorbate, and 2 μM ammonium iron(II) sulfate. Reaction product was determined quantitatively by TR-FRET after the addition of detection reagent Phycolink Streptavidin-allophycocyanin (Prozyme) and Europium-anti-di-methylated histone H3 lysine 9 (H3K9me2) antibody (PerkinElmer) in the presence of 5 mM EDTA in LANCE detection buffer (PerkinElmer) at a final concentration of 50 nM and 1 nM, respectively.
# The assay reaction was initiated by the following: 2 μl of the mixture of 900 nM H3K9me3-biotin labeled peptide and 6 μM alpha-ketoglutaric acid with 2 μl of 11-point serial diluted inhibitor in 3% DMSO were added to each well of the plate, followed by the addition of 2 μl of 0.9 nM JMJD2C to initiate the reaction. The reaction mixture was incubated at room temperature for 30 min, and terminated by the addition of 6 μl of 5 mM EDTA in LANCE detection buffer containing 100 nM Phycolink Streptavidin-allophycocyanin and 2 nM Europium-anti-H3K9me2 antibody. Plates were read by EnVisionMultilabel Reader in TR-FRET mode (excitation at 320 nm, emission at 615 nm and 665 nm) after 1 hr incubation at rt. A ratio was calculated (665/615) for each well and fitted to determine inhibition constant (IC50).
# JMJD2C, sequence (Q9H3R0 2-372): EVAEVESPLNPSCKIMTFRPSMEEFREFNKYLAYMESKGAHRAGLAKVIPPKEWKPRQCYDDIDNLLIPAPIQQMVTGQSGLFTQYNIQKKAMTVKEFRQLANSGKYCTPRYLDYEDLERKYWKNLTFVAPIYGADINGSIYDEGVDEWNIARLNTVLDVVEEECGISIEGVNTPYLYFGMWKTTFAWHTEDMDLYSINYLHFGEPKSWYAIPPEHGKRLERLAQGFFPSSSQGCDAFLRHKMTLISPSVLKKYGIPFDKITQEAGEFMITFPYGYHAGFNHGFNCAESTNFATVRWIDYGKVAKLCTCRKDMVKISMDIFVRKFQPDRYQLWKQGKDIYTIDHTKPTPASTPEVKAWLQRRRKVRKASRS
row,Molecule,IC50
1,"3-{[(6-chloro-1,2,3,4-tetra- hydronaphthalen-1-yl)methyl]- amino}pyridine-4-carboxylic acid [Example 68]",100 to 1000 nM
2,"3-{[(6-chloro-1-hydroxy- 1,2,3,4-tetrahydronaphthalen- 1-yl)methyl]amino}pyridine- 4-carboxylic acid [Example 67]",100 to 1000 nM
3,"O=C(O)c1ccncc1NCC1CCOc2cc(F)ccc21 (stereo not drawn) [Example 65, 3-{[(7-fluoro-3,4-dihydro-2H-chromen-4-yl)methyl]amino}-pyridine-4-carhoxylic acid]",≤ 100 nM
